Experimental data published in patent publication US20060167223A1, “Novel ampiphilic fluorocarbon molecular vectors for biomedical and medical use” (priority 2002, published 2006).

Columns and labels:
B16 melanoma cells = assay: Toxicity / cytotoxicity on B16 melanoma cells; assay type: cell-based
Method: The cytotoxicity of this molecule was tested on B16 melanoma cells; no toxicity could be measured up to concentrations of greater than 100 μM.

[1] = Radioactivity in organs of mice carrying B16 melanomas after IP injection of molecule A; assay type: in vivo; design: Radioactivity measured: unit not given here; settings: for Radioactivity measured: 10 μCi/animal
[2] = tested on: microvessel growth (chick aortic ring); assay: Vascular growth assay on chick embryos (chick aortic ring assay); assay type: cell-based
Text: The ongoing research will make it possible to specify its effectiveness, compared with thalidomide alone, in blocking tumor development.

fibroblasts = assay: Toxicity on cell cultures of fibroblasts; assay type: cell-based
Water-solubility = assay type: physicochemical
Text: As has been seen, however, the growth of a cancerous tumor is closely linked to its rate of vascularization and therefore to the phenomenon of angiogenesis that accompanies it. These observations had the scientific community to develop substrates, as has been seen, capable of inhibiting angiogenesis and therefore of blocking, by this means, the development of tumors. It is in fact now commonly accepted that membrane proteins carried by the angiogenic cells, and called integrins, participate actively in the process of proliferation of these cells. More particularly, αVβ3 integrins recognize a specific peptide sequence, the RGD (arginine-glycine-aspartic acid) sequence. The grafting of this unit onto the proposed vector should therefore provide it with an ability to specifically target angiogenic sites and therefore, ultimately, tumor sites. The addition, to this same vector, of an antimitotic agent should allow the selective destruction of the cancerous cells. In this perspective, molecule B was initially prepared to verify the innocuousness of the vector and to determine its specificity. In order to give the targeting agent a greater degree of freedom, said targeting agent was grafted onto the central lysine by means of a […] amino acid, serine. The molecule is water-soluble and is amphiphilic in nature. [drawing 11]

[3] = Radioactivity in mice carrying B16 melanoma after IV injection of iodine 125-labeled molecule B; assay type: in vivo; design: Radioactivity measured: unit not given here; settings: for Radioactivity measured: 10 μCi/animal
[4] = tested on: fibroblasts exhibiting the NARP mutation; assay type: cell-based
Text: The aim pursued here was to refine and to simplify the structure of these substrates while at the same time conserving their biological activity in order to develop a synthetic process that can be readily adapted to the industrial phase.

O=C1CCC(N2C(=O)c3ccc(C(=O)NC(Cc4ccc(O)cc4)C(=O)NCCCCC(NC(=O)C(O)[C@H](O)[C@H](O[C@@H]4OC(CO)[C@H](O)[C@H](O)C4O)C(O)CO)C(=O)NCCC(F)(F)C(F)(F)C(F)(F)C(F)(F)C(F)(F)C(F)(F)C(F)(F)C(F)(F)F)cc3C2=O)C(=O)N1 (stereo partly drawn) [molecule A]
Toxicity on cell cultures (B16 melanoma cells; B16 melanomas): no totally unacceptable toxicity
Radioactivity measured ([1]; Blood, 15 min after IP injection): 5.9 ± 1.2
Radioactivity measured ([1]; Blood, 1 h after IP injection): 3.4 ± 0.7
Radioactivity measured ([1]; Kidney, 15 min after IP injection): 4.6 ± 0.5
Radioactivity measured ([1]; Kidney, 1 h after IP injection): 4.0 ± 0.9
Radioactivity measured ([1]; Liver, 15 min after IP injection): 4.5 ± 1.1
Radioactivity measured ([1]; Liver, 1 h after IP injection): 2.2 ± 0.8
Radioactivity measured ([1]; Thyroid, 15 min after IP injection): 5.6 ± 0.8
Radioactivity measured ([1]; Thyroid, 1 h after IP injection): 9.8 ± 1.7
Radioactivity measured ([1]; Tumor (center), 15 min after IP injection): 2.6 ± 0.5
Radioactivity measured ([1]; Tumor (center), 1 h after IP injection): 2.7 ± 0.5
Radioactivity measured ([1]; Tumor (stroma), 15 min after IP injection): 4.5 ± 0.7
Radioactivity measured ([1]; Tumor (stroma), 1 h after IP injection): 5.4 ± 0.2
Localisation in vivo ([1]; mice carrying B16 melanomas, IP injection): concentrated in the stroma of the tumor
Inhibiting microvessel growth ([2]; at 20 μM): effective
Inhibiting microvessel growth ([2]; at 200 μM): completely blocks the development
Toxicity on cell cultures (fibroblasts): no totally unacceptable toxicity

COC(=O)C(CCCCNC(=O)C(Cc1ccc(O)cc1)NC(=O)C(C)(C)C(C)(C)C(F)(F)C(F)(F)C(F)(F)C(F)(F)C(F)(F)C(F)(F)C(F)(F)C(F)(F)F)NCC(CO)NC(=O)C(CC(=O)O)NC(=O)CNC(=O)C(N)CCCNC(=N)N (stereo not drawn) [molecule B]
Cytotoxicity: concentration up to which no toxicity could be measured (B16 melanoma cells; B16 melanoma cells): greater than 100 μM
Water-solubility (Water-solubility): water-soluble
Radioactivity measured ([3]; Blood, 15 min after IV injection): 5.8 ± 0.8
Radioactivity measured ([3]; Blood, 30 min after IV injection): 4.5 ± 0.8
Radioactivity measured ([3]; Blood, 1 h after IV injection): 3.6 ± 0.7
Radioactivity measured ([3]; Kidney, 15 min after IV injection): 8.9 ± 1.6
Radioactivity measured ([3]; Kidney, 30 min after IV injection): 5.9 ± 0.6
Radioactivity measured ([3]; Kidney, 1 h after IV injection): 3.5 ± 0.6
Radioactivity measured ([3]; Liver, 15 min after IV injection): 4.8 ± 0.8
Radioactivity measured ([3]; Liver, 30 min after IV injection): 2.2 ± 0.6
Radioactivity measured ([3]; Liver, 1 h after IV injection): 2.4 ± 0.7
Radioactivity measured ([3]; Thyroid, 15 min after IV injection): 5.9 ± 1.2
Radioactivity measured ([3]; Thyroid, 30 min after IV injection): 10.2 ± 2.5
Radioactivity measured ([3]; Thyroid, 1 h after IV injection): 15.3 ± 5.3
Radioactivity measured ([3]; Tumor (center), 15 min after IV injection): 1.7 ± 0.6
Radioactivity measured ([3]; Tumor (center), 30 min after IV injection): 1.8 ± 0.3
Radioactivity measured ([3]; Tumor (center), 1 h after IV injection): 2.4 ± 0.4
Radioactivity measured ([3]; Tumor (stroma), 15 min after IV injection): 3.9 ± 0.8
Radioactivity measured ([3]; Tumor (stroma), 30 min after IV injection): 3.8 ± 0.9
Radioactivity measured ([3]; Tumor (stroma), 1 h after IV injection): 4.2 ± 0.6
Localisation in vivo ([3]; iodine 125-labeled, injected intravenously, mice carrying a melanoma): accumulates in the stroma of the tumor

CC(C)(C)/[N+]([O-])=C/c1ccc(C(=O)NCCCCC(NC(=O)C(O)[C@H](O)[C@H](O[C@@H]2OC(CO)[C@H](O)C(O)C2O)C(O)CO)C(=O)NCCC(F)(F)C(F)(F)C(F)(F)C(F)(F)C(F)(F)C(F)(F)C(F)(F)C(F)(F)F)cc1 (stereo partly drawn) [molecule E]
Toxicity [4]: No toxicity was measured
Cell protection ([4]; NARP fibroblasts, in vitro): exhibits a capacity for cell protection
Effect on the apoptotic process ([4]; NARP fibroblasts, in vitro): inhibits the apoptotic process

O=C1CCC(N2C(=O)c3ccccc3C2=O)C(=O)N1 (stereo not drawn) [thalidomide, reference compound]
Inhibiting microvessel growth ([2]; at such concentrations (20 μM, 200 μM)): ineffective
